We go through twelve compounds from patent US20260184712A1, “Heterocyclic Compounds as ENT Inhibitors and Compounds for Use in the Treatment of Cancers” (iTeos Belgium SA, priority 2022, published 2026).

One may read the IC50 as the concentration at which inhibition is half-maximal.

The structures appear in SMILES notation.

In one assay the target is T1, human ENT1 (Homo sapiens, UniProt Q99808).
T1 construct: JAR cells expressing ENT1 were purchased from ATCC; host or cells: JAR cells
T1 sequence (Q99808 1-456): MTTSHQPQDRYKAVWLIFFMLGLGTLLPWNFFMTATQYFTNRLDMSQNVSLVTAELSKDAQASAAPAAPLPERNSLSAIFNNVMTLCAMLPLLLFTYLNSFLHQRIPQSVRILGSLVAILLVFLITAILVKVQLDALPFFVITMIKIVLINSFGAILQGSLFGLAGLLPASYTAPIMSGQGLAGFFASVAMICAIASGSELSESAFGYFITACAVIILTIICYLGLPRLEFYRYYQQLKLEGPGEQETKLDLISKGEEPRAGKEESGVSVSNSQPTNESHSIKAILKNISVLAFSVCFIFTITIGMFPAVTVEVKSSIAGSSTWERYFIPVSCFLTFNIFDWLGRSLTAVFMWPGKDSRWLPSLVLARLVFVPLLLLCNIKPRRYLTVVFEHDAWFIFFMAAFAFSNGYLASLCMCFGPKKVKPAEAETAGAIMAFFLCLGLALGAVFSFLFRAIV
Nature of the assay: ENT1 binding assay (competition with Sahenta-DY647 on JAR cells). The note with it: competition with SAHENTA-DY647 binding; IC50 categorized; read-out: Binding Assay IC50. An outline of the steps:
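Whole-cell competition on JAR cells (native ENT1): 50,000 cells pre-incubated 30 min at 4 °C with compound in HBSS/10 mM Hepes/0.1% BSA, then 100 nM Sahenta-DY647 added for 30 min at 4 °C. After washing, fluorescence (Ex 630/Em 670 nm) read; IC50 from sigmoidal fit, averaged as pIC50.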
With `C[C@H]1O[C@@H](n2c(NCC3CC(F)(F)C3)nc3c(OCc4ccc(OC(F)F)nc4)ncnc32)[C@H](O)[C@@H]1O` [Compound 114], the IC50 lay in the range of 1 to 20 nM.

In the case of `C[C@H]1O[C@@H](n2c(OCc3ccccc3)nc3c(OCc4ccc([N+](=O)[O-])cc4)ncnc32)[C@H](O)[C@@H]1O` [Compound 2], the IC50 was in the range of 1 to 20 nM.

Turning to `C[C@H]1O[C@@H](n2cnc3c(SCc4ccc(C#N)cc4)ncnc32)[C@H](O)[C@@H]1O` [Compound 165], the IC50 lay within 20 to 500 nM.

With `C[C@H]1O[C@@H](n2c(NC3CCC(O)CC3)nc3c(OCc4ccc(OC(F)F)cc4)ncnc32)[C@H](O)[C@@H]1O` (stereo partly drawn) [Compound 53], the IC50 was less than 1 nM.

Take `C[C@H]1O[C@@H](n2cnc3c(NCc4ccc([N+](=O)[O-])cc4)ncnc32)[C@H](O)[C@@H]1O` [Compound 185]: the IC50 was in the range of 20 to 500 nM.

With `C[C@H]1O[C@@H](n2cnc3c(OCc4ccc(OC(F)(F)F)cc4)ncnc32)[C@H](O)[C@@H]1O` [Compound 180], the IC50 is 20 to 500 nM.

On to `Cc1cc(COc2ncnc3c2ncn3[C@@H]2O[C@H](C)[C@@H](O)[C@H]2O)ccc1[N+](=O)[O-]` [Compound 193], for which the half-maximal inhibitory concentration (IC50) lay within 20 to 500 nM.

Regarding `C[C@H]1O[C@@H](n2c(N[C@@H]3CCOC3)nc3c(OCc4ccc(C#N)cc4)ncnc32)[C@H](O)[C@@H]1O` [Compound 77], the IC50 is 1 to 20 nM.

As for `Cc1nc(-c2ccc(CSc3ncnc4c3ncn4[C@@H]3O[C@H](C)[C@@H](O)[C@H]3O)cc2)no1` [Compound 186], the IC50 is 20 to 500 nM.

Turning to `NC(=O)COC[C@H]1O[C@@H](n2cnc3c(OCCc4ccc([N+](=O)[O-])cc4)ncnc32)[C@H](O)[C@@H]1O` [Compound 199], the IC50 lay in the range of 20 to 500 nM.

In the case of `C[C@H]1O[C@@H](n2cnc3c(OCc4ccc(OC(F)F)cc4)nc(N)nc32)[C@H](O)[C@@H]1O` [Compound 190], the IC50 lay within 20 to 500 nM.

As for `C[C@H]1O[C@@H](n2cnc3c(OCCc4ccc(C#N)nn4)ncnc32)[C@H](O)[C@@H]1O` [Compound 188], the IC50 fell in the range of 20 to 500 nM.

The next assay has as its system stimulated primary human T cells. Briefly: T cell proliferation assay, Condition A (X-VIVO15). The note with it: Homo sapiens, T-cell, 96 h; Condition A: X-VIVO15 medium; anti-CD3/anti-CD28 beads, ATP, 4 days; CFSE-lo T cells. The format is cell-based. Here is the method: (§1) The goal of this study was to determine the potency of ENT1 inhibitors by measuring the rescued proliferation of stimulated primary human T cells incubated in the presence of 100 uM Adenosine triphosphate (ATP), in baseline conditions (condition A) or in the presence of various proteins known to bind small molecules (condition B).
(§2) Venous blood from healthy volunteers, all of whom signed an informed consent approved by the Ethics Committee (FOR—UIC—BV-050-01-01 ICF_HBS_HD Version 5.0), was obtained by ImmuneHealth (Centre Hospitalier Universitaire Tivoli, La Louviere, Belgium). Mononuclear cells were collected by density gradient centrifugation, using SepMate-50 tubes (StemCell Technologies, Grenoble, France) and Lymphoprep (Stemcell Technologies) according to the manufacturer's instructions. CD3+ T cells were isolated by immunomagnetic negative selection, using the EasySep Human T Cell Isolation Kit (StemCell Technologies) as per the manufacturer's instructions. CD3+ T cells were stored in heat inactivated FBS (hiFBS; Gibco, ThermoFisher Scientific, Merelbeke, Belgium) and 10% DMSO in liquid nitrogen.
(§3) Purified human CD3+ T cells were thawed and washed once with RPMI1640 medium, UltraGlutamine (Lonza, Verviers, Belgium) containing 10% hiFBS. Cells were resuspended in PBS containing 10% hiFBS at 1×10^7 cells/ml. One volume of cells was combined with a matching volume of 2 μM CFSE solution in PBS, mixed well by pipetting, and incubated at room temperature for 5 minutes under rotation and protected from light. Excess CFSE was quenched by addition of PBS containing 10% hiFBS, and the cells were centrifuged (300×rcf, 7 minutes) and resuspended in X-VIVO15. Cells were again centrifuged and resuspended in X-VIVO15 for counting.
(§4) Cells were resuspended at 1.6×10^6 cells/mL in X-VIVO15 medium (Condition A) or X-VIVO15 medium containing 4% (v/v) HSA (Sigma-Aldrich, Diegem, Belgium) and 0.2% (v/v) ai-Acid Glycoprotein (Sigma-Aldrich, Diegem, Belgium) (Condition B).
(§5) […] of cell suspension (2×10^4 cells) was added to wells of sterile flat-bottom 384-well plates. Cells were activated by adding […] of anti-CD3 anti-CD28 coated microbeads (Dynabeads human T-activator CD3/CD28; Life Technologies, Paisley, UK) suspended in X-VIVO15 medium or X-VIVO15 medium containing 4% (v/v) HSA and 0.2% (v/v) ai-Acid Glycoprotein at a ratio of one microbead per two cells. Serial dilutions of the ENT1 inhibitors were conducted in X-VIVO15 medium and […] of the diluent was added to the wells. Cells were mixed by pipetting up and down and pre-incubated for 30 minutes in a 37° C. humidified tissue culture incubator with 5% CO2. After pre-incubation, cells were cultured in the presence or absence of ATP (Sigma-Aldrich) at a final concentration of […]. The final well volume was 50 μl in all cases. Experiments were performed in biological duplicates. Cells were mixed by pipetting up and down and incubated for 4 days in a 37° C. humidified tissue culture incubator with 5% CO2.
(§6) Samples were run on a BD LSR Fortessa FACS machine (BD FACSDiva Software v9.0.1). Data were analyzed using FlowJo (BD, v10.7.1). T cell proliferation was determined by measuring the frequency of ‘CFSE^lo’ (i.e. CFSE-diluted).
(§7) T cell proliferation data were analyzed using FlowJo software (Version 10.6.2). Dead cells and cellular debris were excluded on the basis of forward and side scatter profile and singlet cells were selected for further analysis.
(§8) T cell proliferation was determined based on the percent CFSE^lo total T cells for each condition. The data were plotted on the y-axis against log molar (M) concentration of ENT1 inhibitors on the x-axis in GraphPad Prism (version 9.0.0). IC50 and IC90 values were generated with the ‘log(agonist) vs. response—Find ECanything(F))’ function with F constrained to 50 or 90, respectively. pICF values were generated by taking the −logECF values.
For `C[C@H]1O[C@@H](n2c(NCC3CC(F)(F)C3)nc3c(OCc4ccc(OC(F)F)nc4)ncnc32)[C@H](O)[C@@H]1O` [Compound 114], the IC50 was less than 1 nM.

For `C[C@H]1O[C@@H](n2c(OCc3ccccc3)nc3c(OCc4ccc([N+](=O)[O-])cc4)ncnc32)[C@H](O)[C@@H]1O` [Compound 2], the IC50 was less than 1 nM.

The compound `C[C@H]1O[C@@H](n2cnc3c(SCc4ccc(C#N)cc4)ncnc32)[C@H](O)[C@@H]1O` [Compound 165] displayed an IC50 of 1 to 20 nM.

With `C[C@H]1O[C@@H](n2c(NC3CCC(O)CC3)nc3c(OCc4ccc(OC(F)F)cc4)ncnc32)[C@H](O)[C@@H]1O` (stereo partly drawn) [Compound 53], the IC50 is less than 1 nM.

Turning to `C[C@H]1O[C@@H](n2cnc3c(NCc4ccc([N+](=O)[O-])cc4)ncnc32)[C@H](O)[C@@H]1O` [Compound 185], the IC50 is 20 to 500 nM.

With `C[C@H]1O[C@@H](n2cnc3c(OCc4ccc(OC(F)(F)F)cc4)ncnc32)[C@H](O)[C@@H]1O` [Compound 180], the IC50 was 1 to 20 nM.

Consider `Cc1cc(COc2ncnc3c2ncn3[C@@H]2O[C@H](C)[C@@H](O)[C@H]2O)ccc1[N+](=O)[O-]` [Compound 193], for which the IC50 was in the range of 20 to 500 nM.

Regarding `C[C@H]1O[C@@H](n2c(N[C@@H]3CCOC3)nc3c(OCc4ccc(C#N)cc4)ncnc32)[C@H](O)[C@@H]1O` [Compound 77], the IC50 is less than 1 nM.

`Cc1nc(-c2ccc(CSc3ncnc4c3ncn4[C@@H]3O[C@H](C)[C@@H](O)[C@H]3O)cc2)no1` [Compound 186] came in with an IC50 of 1 to 20 nM.

Compound `NC(=O)COC[C@H]1O[C@@H](n2cnc3c(OCCc4ccc([N+](=O)[O-])cc4)ncnc32)[C@H](O)[C@@H]1O` [Compound 199] returned an IC50 of 20 to 500 nM.

The compound `C[C@H]1O[C@@H](n2cnc3c(OCc4ccc(OC(F)F)cc4)nc(N)nc32)[C@H](O)[C@@H]1O` [Compound 190] came in with an IC50 of 1 to 20 nM.

With `C[C@H]1O[C@@H](n2cnc3c(OCCc4ccc(C#N)nn4)ncnc32)[C@H](O)[C@@H]1O` [Compound 188], the IC50 was in the range of 1 to 20 nM.

The test system is the same in the next assay. Briefly: T cell proliferation assay, Condition B (X-VIVO15, 2% HSA and 0.1% AAG). The class given is cell-based. The note with it: Homo sapiens, T-cell, 96 h; Condition B: X-VIVO15 medium containing HSA and α1-Acid Glycoprotein; anti-CD3/anti-CD28 beads, ATP, 4 days; CFSE-lo T cells. As to the method: as §1
Condition B: X-VIVO15, 2% Human Serum Albumin (HSA) and 0.1% α-1-Acid Glycoprotein (AAG)
as §2, §3, §4, §5, §6, §7, §8
With `C[C@H]1O[C@@H](n2c(NCC3CC(F)(F)C3)nc3c(OCc4ccc(OC(F)F)nc4)ncnc32)[C@H](O)[C@@H]1O` [Compound 114], the IC50 was in the range of 20 to 500 nM.

Consider `C[C@H]1O[C@@H](n2c(OCc3ccccc3)nc3c(OCc4ccc([N+](=O)[O-])cc4)ncnc32)[C@H](O)[C@@H]1O` [Compound 2], for which the IC50 lay in the range of 20 to 500 nM.

Turning to `C[C@H]1O[C@@H](n2cnc3c(SCc4ccc(C#N)cc4)ncnc32)[C@H](O)[C@@H]1O` [Compound 165], the IC50 is greater than 500 nM.

As for `C[C@H]1O[C@@H](n2c(NC3CCC(O)CC3)nc3c(OCc4ccc(OC(F)F)cc4)ncnc32)[C@H](O)[C@@H]1O` (stereo partly drawn) [Compound 53], the IC50 lay within 1 to 20 nM.

For the compound `C[C@H]1O[C@@H](n2cnc3c(NCc4ccc([N+](=O)[O-])cc4)ncnc32)[C@H](O)[C@@H]1O` [Compound 185], the IC50 is greater than 500 nM.

Compound `C[C@H]1O[C@@H](n2cnc3c(OCc4ccc(OC(F)(F)F)cc4)ncnc32)[C@H](O)[C@@H]1O` [Compound 180] had an IC50 greater than 500 nM.

As to `Cc1cc(COc2ncnc3c2ncn3[C@@H]2O[C@H](C)[C@@H](O)[C@H]2O)ccc1[N+](=O)[O-]` [Compound 193], the IC50 was greater than 500 nM.

The compound `C[C@H]1O[C@@H](n2c(N[C@@H]3CCOC3)nc3c(OCc4ccc(C#N)cc4)ncnc32)[C@H](O)[C@@H]1O` [Compound 77] registered an IC50 of 20 to 500 nM.

`Cc1nc(-c2ccc(CSc3ncnc4c3ncn4[C@@H]3O[C@H](C)[C@@H](O)[C@H]3O)cc2)no1` [Compound 186]: the IC50 was greater than 500 nM.

`NC(=O)COC[C@H]1O[C@@H](n2cnc3c(OCCc4ccc([N+](=O)[O-])cc4)ncnc32)[C@H](O)[C@@H]1O` [Compound 199] displayed an IC50 greater than 500 nM.

Take `C[C@H]1O[C@@H](n2cnc3c(OCc4ccc(OC(F)F)cc4)nc(N)nc32)[C@H](O)[C@@H]1O` [Compound 190]: the IC50 was greater than 500 nM.

In the case of `C[C@H]1O[C@@H](n2cnc3c(OCCc4ccc(C#N)nn4)ncnc32)[C@H](O)[C@@H]1O` [Compound 188], the IC50 is greater than 500 nM.
